Values quoted from earlier work as cited in US20140194454A1, “COMBINATIONS OF TROSPIUM AND SALIVARY STIMULANTS FOR THE TREATMENT OF OVERACTIVE BLADDER” (TheraVida, Inc., priority 2011, published 2014).

Settings: 5 mg of pilocarpine

## CC[C@@H]1C(=O)OC[C@@H]1Cc1cncn1C [pilocarpine]
  time of maximum saliva output after administration: about 30 minutes
